Laboratory results as given in ChEMBL document CHEMBL5260810, “Inhibition of bromodomain-containing protein 9 for the prevention of epigenetically-defined drug resistance” (Bioorg Med Chem Lett, 2017).

Legend:
[1] = target: Tyrosine-protein kinase ABL1 (Homo sapiens) (UniProt P00519); test: Inhibition of Abl (unknown origin) at 1 uM relative to control
[2] = Cytotoxicity against human 501A cells measured after 8 days; type: functional, cell-based; conditions: 192 h
Granta-519 = test: Cytotoxicity against human Granta-519 cells measured after 8 days; type: functional, cell-based; conditions: Granta-519, 192 h
GA-10 = test: Cytotoxicity against human GA-10 cells measured after 8 days; type: functional, cell-based; conditions: GA-10, 192 h
[3] = Cytotoxicity against human KPL-1 cells measured after 8 days; type: functional, cell-based; conditions: KPL-1, 192 h
[4] = Cytotoxicity against human LS174T-HM7 cells measured after 8 days; type: functional, cell-based; conditions: LS174T-HM7, 192 h
[5] = Cytotoxicity against human HNT-34 cells measured after 8 days; type: functional, cell-based; conditions: HNT-34, 192 h
[6] = target: T1, Bromodomain testis-specific protein (Homo sapiens, UniProt Q58F21); test: Binding affinity to BRDT bromodomain 1/2 (unknown origin) by BROMOscan assay
OCI-LY19 = test: Cytotoxicity against human OCILY19 cells measured after 8 days; type: functional, cell-based; conditions: OCI-LY19, 192 h
Hs-578T = test: Cytotoxicity against human Hs-578T cells measured after 8 days; type: functional, cell-based; conditions: 192 h
SW-620 = test: Cytotoxicity against human SW620 cells measured after 8 days; type: functional, cell-based; conditions: SW-620, 192 h
[7] = Cytotoxicity against human NCI-H2106 cells measured after 8 days; type: functional, cell-based; conditions: NCI-H2106, 192 h
[8] = target: Kappa-type opioid receptor (Homo sapiens) (UniProt P41145); test: Displacement of [3H]U69593 from human kappa receptor at 10 uM after 60 mins by scintillation counting analysis relative to control
Chain of Kappa-type opioid receptor (Homo sapiens) (P41145 whole entry): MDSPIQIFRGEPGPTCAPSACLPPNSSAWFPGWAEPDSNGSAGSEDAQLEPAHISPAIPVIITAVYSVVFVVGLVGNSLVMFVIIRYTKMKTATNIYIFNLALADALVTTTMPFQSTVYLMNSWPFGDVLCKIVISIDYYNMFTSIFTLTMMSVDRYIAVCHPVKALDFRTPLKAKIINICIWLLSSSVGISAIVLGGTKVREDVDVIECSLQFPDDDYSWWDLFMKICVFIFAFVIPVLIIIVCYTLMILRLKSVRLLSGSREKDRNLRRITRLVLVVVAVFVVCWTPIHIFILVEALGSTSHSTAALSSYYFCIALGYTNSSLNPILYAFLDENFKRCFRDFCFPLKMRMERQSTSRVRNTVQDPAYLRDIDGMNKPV

[9] = target: T2, Myosin light chain kinase (Homo sapiens) (UniProt Q32MK0); test: Inhibition of MYLK3 (unknown origin) at 1 uM relative to control
T2 sequence (whole entry): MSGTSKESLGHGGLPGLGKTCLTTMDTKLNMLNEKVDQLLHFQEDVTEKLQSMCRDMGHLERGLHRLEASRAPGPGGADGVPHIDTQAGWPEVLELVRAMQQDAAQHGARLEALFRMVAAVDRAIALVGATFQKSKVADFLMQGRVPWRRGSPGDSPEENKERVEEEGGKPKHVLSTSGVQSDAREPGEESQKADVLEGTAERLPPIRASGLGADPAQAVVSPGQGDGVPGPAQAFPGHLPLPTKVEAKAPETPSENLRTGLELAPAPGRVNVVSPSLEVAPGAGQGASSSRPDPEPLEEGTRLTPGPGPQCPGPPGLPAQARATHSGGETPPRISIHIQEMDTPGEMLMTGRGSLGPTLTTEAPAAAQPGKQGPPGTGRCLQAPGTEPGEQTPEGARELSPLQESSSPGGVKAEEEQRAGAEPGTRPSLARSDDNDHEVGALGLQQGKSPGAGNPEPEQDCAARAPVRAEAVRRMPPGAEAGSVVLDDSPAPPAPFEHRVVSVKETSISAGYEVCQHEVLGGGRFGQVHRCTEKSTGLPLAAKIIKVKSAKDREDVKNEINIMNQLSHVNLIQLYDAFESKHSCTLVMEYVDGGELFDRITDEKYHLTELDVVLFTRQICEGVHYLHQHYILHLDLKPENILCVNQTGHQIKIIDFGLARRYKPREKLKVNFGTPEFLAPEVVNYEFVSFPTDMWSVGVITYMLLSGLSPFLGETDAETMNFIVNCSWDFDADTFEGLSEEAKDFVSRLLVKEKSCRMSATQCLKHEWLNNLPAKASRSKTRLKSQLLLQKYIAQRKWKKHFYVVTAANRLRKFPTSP

[10] = target: Chromatin remodeling regulator CECR2 (Homo sapiens, UniProt Q9BXF3); test: Binding affinity to human partial length CECR2 (P423 to D543 residues) expressed in bacterial expression system by BROMOscan assay
Chain of Chromatin remodeling regulator CECR2 (Q9BXF3 whole entry, the tested form may be a part): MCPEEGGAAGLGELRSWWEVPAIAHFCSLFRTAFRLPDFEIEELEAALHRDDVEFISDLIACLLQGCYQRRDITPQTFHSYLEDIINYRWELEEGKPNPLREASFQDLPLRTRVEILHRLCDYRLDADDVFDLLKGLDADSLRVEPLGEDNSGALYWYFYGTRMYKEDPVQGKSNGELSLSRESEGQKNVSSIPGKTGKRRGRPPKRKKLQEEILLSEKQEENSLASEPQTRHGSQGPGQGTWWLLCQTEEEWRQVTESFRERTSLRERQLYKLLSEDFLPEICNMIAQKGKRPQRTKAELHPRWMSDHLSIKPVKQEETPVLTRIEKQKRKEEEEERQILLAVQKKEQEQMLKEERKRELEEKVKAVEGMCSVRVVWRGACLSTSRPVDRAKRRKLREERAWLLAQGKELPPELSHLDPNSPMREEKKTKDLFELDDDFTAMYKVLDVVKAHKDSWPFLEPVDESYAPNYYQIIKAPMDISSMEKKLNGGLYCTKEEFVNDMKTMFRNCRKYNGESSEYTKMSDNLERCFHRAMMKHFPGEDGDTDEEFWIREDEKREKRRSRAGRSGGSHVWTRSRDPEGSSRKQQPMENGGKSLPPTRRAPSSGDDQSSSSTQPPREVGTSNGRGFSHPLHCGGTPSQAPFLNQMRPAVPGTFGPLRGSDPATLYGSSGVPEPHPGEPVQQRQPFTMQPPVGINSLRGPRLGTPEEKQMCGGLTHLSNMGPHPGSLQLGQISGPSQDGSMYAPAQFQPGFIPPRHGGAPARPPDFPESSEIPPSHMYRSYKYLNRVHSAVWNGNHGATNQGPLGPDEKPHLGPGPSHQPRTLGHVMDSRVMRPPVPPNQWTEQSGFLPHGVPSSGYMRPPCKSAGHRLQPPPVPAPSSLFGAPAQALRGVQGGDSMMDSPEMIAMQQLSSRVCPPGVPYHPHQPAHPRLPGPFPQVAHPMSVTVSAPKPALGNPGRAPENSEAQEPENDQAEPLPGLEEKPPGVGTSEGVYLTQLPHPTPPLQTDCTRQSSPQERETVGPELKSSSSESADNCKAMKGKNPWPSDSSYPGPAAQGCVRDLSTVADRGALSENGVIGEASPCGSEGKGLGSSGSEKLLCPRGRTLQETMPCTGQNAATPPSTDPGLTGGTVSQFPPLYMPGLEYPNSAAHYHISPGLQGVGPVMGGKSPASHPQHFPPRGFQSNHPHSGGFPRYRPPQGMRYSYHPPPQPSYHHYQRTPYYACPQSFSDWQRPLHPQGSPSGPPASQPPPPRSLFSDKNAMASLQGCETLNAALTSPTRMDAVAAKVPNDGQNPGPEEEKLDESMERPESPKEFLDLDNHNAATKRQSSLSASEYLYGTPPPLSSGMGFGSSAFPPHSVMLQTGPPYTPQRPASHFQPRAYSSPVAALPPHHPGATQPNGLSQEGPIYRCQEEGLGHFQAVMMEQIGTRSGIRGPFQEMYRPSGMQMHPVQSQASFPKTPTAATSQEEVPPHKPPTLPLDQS

[11] = target: T3, Serine/threonine-protein kinase Chk1 (Homo sapiens) (UniProt O14757); test: Inhibition of CHK1 (unknown origin) at 1 uM relative to control
T3 sequence (whole entry): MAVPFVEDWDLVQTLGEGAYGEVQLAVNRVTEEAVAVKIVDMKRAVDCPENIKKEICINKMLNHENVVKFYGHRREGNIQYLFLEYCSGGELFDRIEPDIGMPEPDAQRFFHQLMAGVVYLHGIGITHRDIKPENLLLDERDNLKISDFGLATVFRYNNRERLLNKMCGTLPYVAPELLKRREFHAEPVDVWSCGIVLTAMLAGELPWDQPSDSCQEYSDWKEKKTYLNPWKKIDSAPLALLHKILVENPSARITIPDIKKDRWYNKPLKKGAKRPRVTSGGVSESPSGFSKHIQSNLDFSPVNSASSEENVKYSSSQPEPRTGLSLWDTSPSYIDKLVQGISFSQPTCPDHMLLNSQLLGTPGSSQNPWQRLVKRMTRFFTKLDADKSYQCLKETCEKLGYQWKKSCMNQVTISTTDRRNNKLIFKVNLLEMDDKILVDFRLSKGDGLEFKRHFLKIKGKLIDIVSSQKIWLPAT

[12] = target: T4, Interleukin-1 receptor-associated kinase 4 (Homo sapiens) (UniProt Q9NWZ3); test: Inhibition of IRAK4 (unknown origin) at 1 uM relative to control
T4 sequence (whole entry): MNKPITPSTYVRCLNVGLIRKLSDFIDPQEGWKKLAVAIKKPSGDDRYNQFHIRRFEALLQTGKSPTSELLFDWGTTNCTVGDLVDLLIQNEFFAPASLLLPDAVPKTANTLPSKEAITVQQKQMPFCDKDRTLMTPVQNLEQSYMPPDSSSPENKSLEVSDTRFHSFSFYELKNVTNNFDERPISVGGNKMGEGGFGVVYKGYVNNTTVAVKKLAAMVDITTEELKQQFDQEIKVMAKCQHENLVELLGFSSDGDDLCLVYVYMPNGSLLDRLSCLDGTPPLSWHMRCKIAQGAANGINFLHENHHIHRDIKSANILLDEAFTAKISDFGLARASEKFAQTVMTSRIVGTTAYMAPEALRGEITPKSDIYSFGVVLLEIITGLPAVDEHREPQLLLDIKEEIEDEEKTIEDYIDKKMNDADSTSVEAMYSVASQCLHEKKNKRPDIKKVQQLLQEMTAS

[13] = Cytotoxicity against human NCI-H1339 cells measured after 8 days; type: functional, cell-based; conditions: NCI-H1339, 192 h
[14] = Cytotoxicity against human MDST8 cells measured after 8 days; type: functional, cell-based; conditions: MDST8, 192 h
[15] = target: T1, Bromodomain testis-specific protein; test: Binding affinity to human partial length BRDT bromodomain 1 (N21 to E137 residues) expressed in bacterial expression system by BROMOscan assay
PC-3 = test: Cytotoxicity against human PC-3 cells measured after 8 days; type: functional, cell-based; conditions: PC-3, 192 h
[16] = target: Adrenergic receptor alpha-1 (Rattus norvegicus) (UniProt P15823+P23944+P43140); test: Displacement of [3H]-prazosin from rat alpha1 adrenoceptor at 10 uM after 60 mins by scintillation counting analysis relative to control; type: protein assay
[17] = Cytotoxicity against human HCA7 cells measured after 8 days; type: functional, cell-based; conditions: HCA-7, 192 h
Ramos = test: Cytotoxicity against human Ramos cells measured after 8 days; type: functional, cell-based; conditions: 192 h

Chain of Tyrosine-protein kinase ABL1 (Homo sapiens) (P00519 whole entry): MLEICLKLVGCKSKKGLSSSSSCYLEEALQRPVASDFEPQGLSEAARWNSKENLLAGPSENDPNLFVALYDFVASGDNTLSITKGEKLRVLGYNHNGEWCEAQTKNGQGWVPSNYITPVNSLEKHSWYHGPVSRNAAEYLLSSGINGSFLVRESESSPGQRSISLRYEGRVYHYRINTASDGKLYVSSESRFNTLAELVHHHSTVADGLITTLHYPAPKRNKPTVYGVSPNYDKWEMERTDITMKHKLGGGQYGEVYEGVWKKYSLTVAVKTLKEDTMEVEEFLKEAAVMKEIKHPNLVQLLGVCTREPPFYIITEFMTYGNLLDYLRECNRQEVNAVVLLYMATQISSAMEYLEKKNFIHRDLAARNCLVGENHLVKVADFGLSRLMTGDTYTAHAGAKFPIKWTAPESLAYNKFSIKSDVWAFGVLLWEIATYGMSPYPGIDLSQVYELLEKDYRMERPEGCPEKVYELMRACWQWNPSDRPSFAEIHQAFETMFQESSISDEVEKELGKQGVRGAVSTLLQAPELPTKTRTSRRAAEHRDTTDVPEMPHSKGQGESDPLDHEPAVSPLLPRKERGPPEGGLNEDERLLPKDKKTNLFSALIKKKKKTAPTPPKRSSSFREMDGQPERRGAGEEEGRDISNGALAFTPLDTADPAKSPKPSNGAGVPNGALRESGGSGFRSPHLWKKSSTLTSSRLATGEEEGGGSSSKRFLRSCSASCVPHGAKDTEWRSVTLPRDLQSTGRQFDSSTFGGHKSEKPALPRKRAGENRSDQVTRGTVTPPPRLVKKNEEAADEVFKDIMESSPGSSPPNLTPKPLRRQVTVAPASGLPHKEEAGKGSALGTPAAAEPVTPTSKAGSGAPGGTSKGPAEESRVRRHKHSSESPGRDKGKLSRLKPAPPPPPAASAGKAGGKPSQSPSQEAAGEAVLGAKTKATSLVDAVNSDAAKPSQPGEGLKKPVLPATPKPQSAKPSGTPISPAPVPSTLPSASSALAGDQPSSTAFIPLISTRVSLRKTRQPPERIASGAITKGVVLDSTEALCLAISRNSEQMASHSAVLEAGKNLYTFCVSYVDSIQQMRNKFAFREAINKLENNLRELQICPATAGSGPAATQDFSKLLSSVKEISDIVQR

Work on `C/C=C/Cn1cc(-c2ccc(C(C)(C)O)cc2OC)c2cc[nH]c2c1=O` yielded an inhibition [1] of 10%, an IC50 [2] of 20 µM and an IC50 (Granta-519) of 20 µM. For the same compound, the IC50 (GA-10) was 20 µM, the IC50 [3] was 17.5 µM and the IC50 [4] was 20 µM. It also gave an IC50 [5] of 8.14 µM, a Kd [6] of 1.2 µM and an IC50 (OCI-LY19) of 14.9 µM. It also gave an IC50 (Hs-578T) of 20 µM, an IC50 (SW-620) of 20 µM and an IC50 [7] of 20 µM. For the same compound, the Activity [8] was -1%, the inhibition [9] was 2% and the Kd [10] was greater than 10 µM. For the same compound, the inhibition [11] was 7%, the inhibition [12] was 6% and the IC50 [13] was 20 µM. For the same compound, the IC50 [14] was 20 µM, the Kd [15] was 0.83 µM and the IC50 (PC-3) was 20 µM. The Activity [16] was 7%, the IC50 [17] was 20 µM and the IC50 (Ramos) was 20 µM.
Work on `C/C=C/Cn1cc(-c2ccc(C(=O)N3CCOCC3)cc2)c2cc[nH]c2c1=O` yielded an inhibition [1] of -4.2%, an IC50 [2] of 20 µM and an IC50 (Granta-519) of 20 µM. The IC50 (GA-10) was 10.8 µM, the IC50 [3] was 20 µM and the IC50 [4] was 20 µM. It also gave an IC50 [5] of 8.35 µM, a Kd [6] of 2.9 µM and an IC50 (OCI-LY19) of 20 µM. It also gave an IC50 (Hs-578T) of 20 µM, an IC50 (SW-620) of 20 µM and an IC50 [7] of 20 µM. It also gave an Activity [8] of 6%, an inhibition [9] of 1.4% and a Kd [10] of 3.8 µM. It also gave an inhibition [11] of 3.4%, an inhibition [12] of -4.9% and an IC50 [13] of 20 µM. The IC50 [14] was 20 µM, the Kd [15] was 2.5 µM and the IC50 (PC-3) was 20 µM. The Activity [16] was 7%, the IC50 [17] was 20 µM and the IC50 (Ramos) was 20 µM.
`C/C=C/Cn1cc(-c2cc(OC)c(C(C)(C)O)cc2OC)c2cc(C)[nH]c2c1=O` showed a Kd [6] of 6.2 µM, a Kd [10] greater than 10 µM and a Kd [15] of 2.1 µM.
Work on `C/C=C/Cn1cc(-c2cc(OC)c(C(=O)N3CCOCC3)cc2OC)c2cc(C)[nH]c2c1=O` yielded an inhibition [1] of 11%, an IC50 [2] of 2 µM and an IC50 (Granta-519) of 2 µM. For the same compound, the IC50 (GA-10) was 2 µM, the IC50 [3] was 2 µM and the IC50 [4] was 2 µM. For the same compound, the IC50 [5] was 0.54 µM, the Kd [6] was greater than 10 µM and the IC50 (OCI-LY19) was 2 µM. For the same compound, the IC50 (Hs-578T) was 2 µM, the IC50 (SW-620) was 2 µM and the IC50 [7] was 2 µM. For the same compound, the Activity [8] was 8%, the inhibition [9] was 5% and the Kd [10] was 3.6 µM. The inhibition [11] was -7.5%, the inhibition [12] was -3.5% and the IC50 [13] was 2 µM. For the same compound, the IC50 [14] was 2 µM, the Kd [15] was greater than 10 µM and the IC50 (PC-3) was 2 µM. It also gave an Activity [16] of 3%, an IC50 [17] of 2 µM and an IC50 (Ramos) of 2 µM.
